The values below are quoted from earlier work in article PMC3691235, “Discovery of a Novel Dual Fungal CYP51/Human 5-Lipoxygenase Inhibitor: Implications for Anti-Fungal Therapy” (PLoS ONE, 2013).

As a reminder, the Kd is the equilibrium constant for the complex coming apart. The IC50 is the midpoint of a concentration-inhibition curve.

Data set [1] addresses T1, Homo sapiens CYP51 (HsCYP51) (Homo sapiens, UniProt Q16850).
T1 construct: made in house; host or cells: E. coli
T1 sequence (Q16850 1-509): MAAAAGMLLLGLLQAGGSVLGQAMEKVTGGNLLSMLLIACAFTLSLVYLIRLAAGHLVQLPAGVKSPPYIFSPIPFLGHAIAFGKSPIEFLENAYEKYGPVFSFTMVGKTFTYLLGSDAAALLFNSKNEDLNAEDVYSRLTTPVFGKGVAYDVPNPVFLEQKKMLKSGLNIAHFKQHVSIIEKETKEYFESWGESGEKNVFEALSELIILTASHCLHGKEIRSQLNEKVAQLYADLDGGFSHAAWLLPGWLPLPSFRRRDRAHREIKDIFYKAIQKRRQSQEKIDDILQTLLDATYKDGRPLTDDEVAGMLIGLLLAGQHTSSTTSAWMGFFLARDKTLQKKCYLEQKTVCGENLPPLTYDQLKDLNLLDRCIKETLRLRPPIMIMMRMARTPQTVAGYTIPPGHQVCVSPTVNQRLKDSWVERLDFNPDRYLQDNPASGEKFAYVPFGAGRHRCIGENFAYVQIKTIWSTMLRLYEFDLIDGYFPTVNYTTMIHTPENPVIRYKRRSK
Further details: method as in PMID 20149798. The settings on record: ref [40]; read-out: Kd with HsCYP51, previously reported; cited from earlier work.

In data set [2] the target is T2, Human leukocyte 5-lipoxygenase (Homo sapiens, UniProt P09917).
T2 construct: made in house
T2 sequence (P09917 1-674): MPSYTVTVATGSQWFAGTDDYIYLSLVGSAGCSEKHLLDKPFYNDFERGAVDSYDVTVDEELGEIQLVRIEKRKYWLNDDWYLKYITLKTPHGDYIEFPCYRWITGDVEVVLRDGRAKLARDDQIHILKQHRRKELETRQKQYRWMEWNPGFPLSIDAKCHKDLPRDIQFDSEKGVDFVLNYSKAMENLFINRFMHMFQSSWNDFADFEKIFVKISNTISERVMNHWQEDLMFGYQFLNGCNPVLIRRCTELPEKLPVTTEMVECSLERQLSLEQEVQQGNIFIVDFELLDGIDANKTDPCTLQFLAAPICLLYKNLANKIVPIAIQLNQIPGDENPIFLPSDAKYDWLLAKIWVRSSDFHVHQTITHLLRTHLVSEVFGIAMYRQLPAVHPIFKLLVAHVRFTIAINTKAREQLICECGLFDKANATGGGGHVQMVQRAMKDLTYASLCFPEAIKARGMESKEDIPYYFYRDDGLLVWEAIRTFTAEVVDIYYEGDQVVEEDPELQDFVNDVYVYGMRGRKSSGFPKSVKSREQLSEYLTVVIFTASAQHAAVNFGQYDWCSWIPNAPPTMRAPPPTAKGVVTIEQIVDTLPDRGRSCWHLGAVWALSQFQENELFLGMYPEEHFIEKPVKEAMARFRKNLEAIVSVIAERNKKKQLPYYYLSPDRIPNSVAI
The settings on record: ref [12], [13]; read-out: 5-LOX IC50; cited from earlier work.

In the case of `Clc1ccc(COC(Cn2ccnc2)c2ccc(Cl)cc2Cl)c(Cl)c1` (stereo not shown) [miconazole], the dissociation constant (Kd) in data set [1] was < 100 nM.
Consider `Clc1ccc(COC(Cn2ccnc2)c2ccc(Cl)cc2Cl)cc1` (stereo not shown) [econazole], for which the Kd in data set [1] is < 100 nM.
On to `CCC(C)n1ncn(-c2ccc(N3CCN(c4ccc(OCC5COC(Cn6cncn6)(c6ccc(Cl)cc6Cl)O5)cc4)CC3)cc2)c1=O` (stereo not shown) [itraconazole], for which the IC50 in data set [2] was > 50000 nM.
In the case of `Clc1ccccc1C(c1ccccc1)(c1ccccc1)n1ccnc1` [clotrimazole], the dissociation constant (Kd) in data set [1] was < 100 nM.
